Experiment [1] deals with chloride channel. The experiment in a line: In vitro human erythrocyte chloride conductance. It counts as cell-based. The conditions noted are these: suspensions of human erythrocytes; from Cl- netfluxes and membrane potentials; read-out: KD-value (chloride channel blocking activity, membrane Cl-conductance). From the text: In this example the chloride channel blocking activity of an acetamide derivative representative of the invention, i.e. Compound 3 (3-(3,5-Bis-trifluoromethyl-phenyl)-3-oxo-N-[3-(1H-tetrazol-5-yl)-4′-trifluoromethoxy-biphenyl-4-yl]-propionamide), has been determined.
All dose-response experiments were therefore performed by concomitant measurements of conductive netfluxes of Cl^− (Jcl) and membrane potentials (Vm) in suspensions of erythrocytes as described by Bennekou et al. (Bennekou P and Christophersen P: Flux ratio of Valinomycin-Mediated K^+ Fluxes across the Human Red Cell Membrane in the presence of the Protronophore CCCP; J. Membrane Biol. 1986 93 221-227).
The membrane Cl-conductances (GCl) were calculated according to Hodgkin et al. (Hodgkin A L and Huxley A F: The components of membrane conductance in the giant axon of Loligo; J. Physiol. Lond. 1952 116 449-472) using the following equation: […]
where F is the Faraday constant and ECl is the Nernst potential for the Cl-ion.

For experiment [2], the target named is T1, BK channels (Homo sapiens, UniProt Q12791).
T1 construct: expressed in transfected cells; host or cells: Xenopus laevis oocytes
T1 sequence (Q12791 whole entry): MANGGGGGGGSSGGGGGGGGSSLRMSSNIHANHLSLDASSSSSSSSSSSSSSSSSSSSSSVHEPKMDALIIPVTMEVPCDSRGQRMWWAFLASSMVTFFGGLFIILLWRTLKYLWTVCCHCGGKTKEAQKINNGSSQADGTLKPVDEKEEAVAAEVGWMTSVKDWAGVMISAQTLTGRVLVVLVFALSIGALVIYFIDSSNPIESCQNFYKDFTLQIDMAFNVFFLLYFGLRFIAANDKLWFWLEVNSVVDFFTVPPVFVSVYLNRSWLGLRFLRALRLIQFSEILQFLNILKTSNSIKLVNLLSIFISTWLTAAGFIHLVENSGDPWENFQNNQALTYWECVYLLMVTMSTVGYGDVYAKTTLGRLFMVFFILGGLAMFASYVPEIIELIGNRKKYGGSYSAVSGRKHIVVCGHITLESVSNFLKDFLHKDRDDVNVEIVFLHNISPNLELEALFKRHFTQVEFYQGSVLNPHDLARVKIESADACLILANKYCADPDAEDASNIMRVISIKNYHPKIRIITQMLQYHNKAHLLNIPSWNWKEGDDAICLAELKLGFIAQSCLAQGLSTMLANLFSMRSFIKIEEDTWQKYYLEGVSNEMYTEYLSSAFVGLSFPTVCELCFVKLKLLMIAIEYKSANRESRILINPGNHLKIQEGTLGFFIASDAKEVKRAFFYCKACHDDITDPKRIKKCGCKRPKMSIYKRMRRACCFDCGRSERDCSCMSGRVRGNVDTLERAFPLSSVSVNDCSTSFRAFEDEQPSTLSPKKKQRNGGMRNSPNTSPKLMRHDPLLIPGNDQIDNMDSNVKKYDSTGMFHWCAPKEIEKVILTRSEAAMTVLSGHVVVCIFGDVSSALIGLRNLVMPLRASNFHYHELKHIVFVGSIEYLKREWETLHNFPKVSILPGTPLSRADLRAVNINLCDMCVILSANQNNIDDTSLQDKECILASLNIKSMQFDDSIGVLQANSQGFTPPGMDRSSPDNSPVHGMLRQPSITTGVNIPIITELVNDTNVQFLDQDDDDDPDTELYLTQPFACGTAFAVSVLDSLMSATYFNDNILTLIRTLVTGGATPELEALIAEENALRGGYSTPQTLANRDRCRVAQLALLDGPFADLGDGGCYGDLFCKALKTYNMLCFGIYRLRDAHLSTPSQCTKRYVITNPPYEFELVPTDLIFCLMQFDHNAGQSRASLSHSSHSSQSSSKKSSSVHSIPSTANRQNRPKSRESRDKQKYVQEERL
As to the kind of experiment: BK channel activation, two-electrode voltage clamp in Xenopus laevis oocytes. Type of experiment: cell-based. To be noted: BK channels heterologously expressed in Xenopus laevis oocytes, 0.01-31.6 μM compound. Here is the method:
In this example the BK channel opening activity of Compound 4 (i.e. N-[5-Chloro-2-(1H-tetrazol-5-yl)-phenyl]-3-(4-chloro-3-trifluoromethyl-phenyl)-3-oxo-propionamide) is determined using BK channels heterologously expressed in Xenopus laevis oocytes.
The electrical current through the BK channel is measured using conventional two-electrode voltage clamp. BK currents are activated by repeating ramp protocols. In brief, the membrane potential is continuously changed from −120 mV to +120 mV within 2 s. The threshold for BK activation is approximately +30 mV under control conditions. Compounds are applied for 100 s during which the ramp protocol is repeated 10 times with 10 s intervals. In between the ramp protocols the membrane potential is clamped at −80 mV. […]
In order to evaluate the ability of the compounds to shift the BK activation curve towards lower membrane potentials, the BK current was transformed into conductance by using Ohm's law g=I/(Ememb−Erev), where g is the conductance, I is the current, Ememb is the membrane potential and Erev is the reversal potential. […] The control conductance level at a membrane potential of +100 mV was calculated, and the compound effect was evaluated as the potential difference, ΔV, to the membrane potential at which the same conductance level was obtained in the presence of compound. […]
A general note: Two-electrode voltage clamp holds a large cell at a set potential and records current.

By Kd is commonly meant a measure of binding affinity in units of concentration. As to `O=C(CC(=O)c1cc(C(F)(F)F)cc(C(F)(F)F)c1)Nc1ccc(-c2ccc(OC(F)(F)F)cc2)cc1-c1nnn[nH]1` [Compound 3, 3-(3,5-Bis-trifluoromethyl-phenyl)-3-oxo-N-[3-(1H-tetrazol-5-yl)-4′-trifluoromethoxy-biphenyl-4-yl]-propionamide], the Kd in experiment [1] was 0.21 µM.

For `O=C(CC(=O)c1ccc(Cl)c(C(F)(F)F)c1)Nc1cc(Cl)ccc1-c1nnn[nH]1` [Compound 4, N-[5-Chloro-2-(1H-tetrazol-5-yl)-phenyl]-3-(4-chloro-3-trifluoromethyl-phenyl)-3-oxo-propionamide], the “ΔVmax (maximal left shift of the BK activation curve)” value in experiment [2] (fitted to sigmoidal logistic equation) is recorded as −123 mV. Besides, the EC50 in experiment [2] (ΔV vs. control conductance at +100 mV, read-out: EC50 for the left-shift of the BKCa-activation curve) was determined as 1.8 µM.

The record behind these values is patent US20100137387A1, “BETA-KETO-AMIDE DERIVATIVES USEFUL AS ION CHANNEL MODULATORS” (NeuroSearch A/S, priority 2007, published 2010).
